Where “and” joins values, the source holds several entries; their conditions need not be identical. Equal values may be shown once.
Tests used:
Meat Normal Flora = assay: Un-inoculated meat exposed to CO2 in a supercritical fluid extractor, bacterial plate count; type: cell-based; conditions: for CFU/g / Logs: control 7.53 logs, listed as CO2
Experimental: (§1) Each meat sample was placed into a sterile bag and weighed, a known volume of sterile buffer was added as a diluent and the meat sample homogenized in a ‘Stomacher’. This suspension was then further diluted as 1:10 dilutions and duplicate 1 ml samples were plated onto the surface of agar media formulated for the enumeration of E. coli 0157. The bacterial levels were recorded as colony forming units CFU per g. or as log 10 of that number.
The above experiments used the most exacting conditions available given the reactor equipment. The survival of natural microflora of meat when treated with carbon dioxide in the super critical range was also investigated.
In the Dairy Science chemistry research lab in Call Hall (KSU), equipment is available to achieve temperatures and pressures above the critical point of carbon dioxide (a Pepmaster GA made by the Suprex Corp.). This device is mainly used for lipid extraction from natural materials prior to further analysis.
The tests were undertaken to determine the efficacy of supercritical carbon dioxide using laboratory equipment shown schematically in FIGS. 8 and 9.
The sample cells 2 in parallel hold about 4 gr of sample which is sufficient to do microbial analysis and the equipment could control pressure up to about 7500 psig, temperature (above ambient), and time. Introduction of E. coli 0157 meat into the lab was not possible. […]

E. coli 0157 = assay: Inoculated meat cubes treated with carbon dioxide in high pressure reactor, E. coli 0157 plate count; type: cell-based
Experimental: To carry out the experiments, a high pressure reactor was designed to the following specifications. • A vessel built to withstand about 3000 psig with top and bottom vents for the addition/venting of carbon dioxide gas as required. • An analog pressure gauge. • A digital temperature recorder on the top vent from the vessel. • A pH probe that could be raised/lowered into the center of the reactor top. • A supply of liquid carbon dioxide at about 300 psi and −20° C. • A supply of gaseous carbon dioxide heated to about 56° C. in a hot water bath. • A supplementary probe to measure the temperature of the reactor barrel surface. • Lap top computer to record temperature data.
FIG. 8 is a schematic illustration of laboratory equipment 800 used in carrying out various tests of the treatment of meat with carbon dioxide. The apparatus 800 includes pressure cylinders 804, 806, and 808 with high-pressure piping 824, pressure release safety valve 828 and on/off valves 812, 814, 816, 818, 820, and 822. Meat samples, having been inoculated, are suspended from a centrally located shaft within the cylinder 804 and the upper member 802 is bolted to the cylinder 804 in a manner that substantially ensures a leak-proof and pressure tight seal. A stream of fluid carbon dioxide 824 that progressively turns to liquid is transferred into the cylinder 804 until the suspended meat samples therein are immersed in the liquid carbon dioxide. After a recorded and selected period of time, the liquid carbon dioxide is removed from the cylinder 804 and the pressure therein reduced to ambient atmospheric pressure. The samples can then be removed from the cylinder and the reduction of bacteria population determined. The items 806 and 808 are commonly referred to as an intensifier. Opening valve 812 allows filling the cylinder 806 with low pressure fluid carbon dioxide, and then, after isolation of the lower pressure source of the fluid carbon dioxide, a piston in cylinder 808 is activated by hydraulic oil from line 826 (or high-pressure air or gas) and a smaller diameter piston in cylinder 806 compresses the fluid carbon dioxide and elevates the pressure. The higher pressure carbon dioxide fluid in line 824 is then transferred to cylinder 804 via a selected path through high-pressure piping 824 as shown.
Cell cultures were grown overnight in a nutrient broth. The cells were separated by centrifugation and washed in a sterile buffer. The E. coli cell suspension was then diluted to give log 7-9 cell per ml.
Meat was purchased at a local retail store. The meat was aseptically cut into 1 inch cubes and suspended by attachment to sterile fish hooks. Meat samples were then placed into an inoculation chamber where they were sprayed with about 10 mls of the cell inoculum. This was done ensuring that all 6 sides of each piece of meat received the same exposure to the E. coli. The samples were then allowed to stand for about 30 minutes at room temperature to achieve the attachment of the E. coli to the meat. One of these meat samples was immediately taken and analyzed for E. coli (as a control). The remaining inoculated samples were then placed into the reactor and the experiment started.
One (1) inch meat cube samples were suspended from the pH probe using small fishing hooks and line so that the cubes were suspended in the bottom third of the reactor and were neither touching each other nor the walls of the vessel.
as §1
The methodology was as stated above. The reactor contained inoculated meat. […]

[1] = Experiment 4: 1470 psi @ 29° C., 5 min
[2] = Experiment 4: 3000 psi @ 29° C., 5 min
[3] = Experiment 1: 300-1000 psi, 10 min
[4] = Experiment 3: 1000 psi @ 13° C. held 4 hours, analyzed immediately, control 7.87 logs, listed as Liquid CO2

Question: How did the “log bacteria reduction versus control” value (Meat Normal Flora; Experiment 4: 1470 psi @ 29° C. (line 21B)) turn out when `O=C=O` [carbon dioxide] was run?
Answer: ~1 log

Question: What about the CFU/g (Meat Normal Flora; [1]) of the same compound?
Answer: 5,233,644.9 CFU/g and 9,523,809.5 CFU/g

Question: And the Logs (Meat Normal Flora; [1])?
Answer: 6.72 Logs and 6.98 Logs

Question: And the “log bacteria reduction versus control” value (Meat Normal Flora; Experiment 4: 3000 psi @ 29° C. (lines 22C and 23D))?
Answer: ~1 log

Question: And the CFU/g (Meat Normal Flora; [2])?
Answer: 9,029,345.4 CFU/g and 5,154,639.2 CFU/g

Question: And the Logs (Meat Normal Flora; [2])?
Answer: 6.96 Logs and 6.71 Logs

Question: And the “log bacteria after the test” value (Meat Normal Flora; Experiment 5: 3000 psi, 36° C., 5 min (mean of replicates))?
Answer: 5.53 log

Question: What about the “log reduction versus control” value (Meat Normal Flora; Experiment 5: supercritical, 3000 psi, 36° C., 5 min) of the same compound?
Answer: ~2 log and 1.83 log

Question: And the “average of the 3 test samples” value (E. coli 0157; [3])?
Answer: 7.22 log

Question: And the “log reduction versus control” value (E. coli 0157; [3])?
Answer: 0.47 log

Question: And the “average of the test samples” value (E. coli 0157; Experiment 2: -17° C. at 300 psig, then 1000 psig 5 min)?
Answer: 6.5 log

Question: And the “log reduction versus control” value (E. coli 0157; Experiment 2: -17° C. at 300 psig, then 1000 psig 5 min, meat frozen, listed as Liquid CO2)?
Answer: ~1 log and 1.27 log

Question: What about the CFU/g (E. coli 0157; [4]) of the same compound?
Answer: 8,741,258.7 CFU/g and 14,344,362.3 CFU/g and 8,467,741.9 CFU/g

Question: What about the Logs (E. coli 0157; [4]) of the same compound?
Answer: 6.94 Logs and 7.16 Logs and 6.93 Logs

Question: And the “log reduction versus control” value (E. coli 0157; Experiment 3: 1000 psig 4 hours, analyzed immediately)?
Answer: ~1 log and 0.86 log

Question: What about the “further log kill by storage” value (E. coli 0157; Experiment 3: storage in about 100% carbon dioxide at about 4° C. for 4 days after treatment) of the same compound?
Answer: 2.83 log

Question: What about the “destruction of E. coli 0157 on meat surfaces” value (E. coli 0157; liquid carbon dioxide in the sub critical range alone) of the same compound?
Answer: no practical significance

Question: What about the “log kill with liquid carbon dioxide” value (E. coli 0157; liquid carbon dioxide, experiment not specified) of the same compound?
Answer: ~0.5 log
